The NIST ThermoML archive (doi:10.1016/j.tca.2017.12.013)

Assay: molar heat capacity at constant pressure
Conditions: 101.33 kPa, DSC

[Ag+].[Ag+].[S-2] [silver sulfide]
Conditions	molar heat capacity at constant pressure [J/K/mol]
299.71 K, Crystal 3	73.92
300.71 K, Crystal 3	74.02
301.71 K, Crystal 3	74.12
302.71 K, Crystal 3	74.21
303.71 K, Crystal 3	74.31
304.71 K, Crystal 3	74.4
305.71 K, Crystal 3	74.46
306.71 K, Crystal 3	74.53
307.71 K, Crystal 3	74.62
308.71 K, Crystal 3	74.69
309.71 K, Crystal 3	74.77
310.71 K, Crystal 3	74.85
311.71 K, Crystal 3	74.92
312.71 K, Crystal 3	75.14
313.71 K, Crystal 3	75.21
314.71 K, Crystal 3	75.29
315.71 K, Crystal 3	75.36
316.71 K, Crystal 3	75.42
317.71 K, Crystal 3	75.49
318.71 K, Crystal 3	75.53
319.71 K, Crystal 3	75.58
320.71 K, Crystal 3	75.65
321.71 K, Crystal 3	75.71
322.71 K, Crystal 3	75.78
323.71 K, Crystal 3	75.84
324.71 K, Crystal 3	75.9
325.71 K, Crystal 3	75.97
326.71 K, Crystal 3	76.03
327.71 K, Crystal 3	76.09
328.71 K, Crystal 3	76.14
329.71 K, Crystal 3	76.2
330.71 K, Crystal 3	76.26
331.71 K, Crystal 3	76.31
332.71 K, Crystal 3	76.37
333.71 K, Crystal 3	76.42
334.71 K, Crystal 3	76.48
335.71 K, Crystal 3	76.53
336.71 K, Crystal 3	76.58
337.71 K, Crystal 3	76.63
338.71 K, Crystal 3	76.68
339.71 K, Crystal 3	76.74
340.71 K, Crystal 3	76.79
341.71 K, Crystal 3	76.84
342.71 K, Crystal 3	76.89
343.71 K, Crystal 3	76.93
344.71 K, Crystal 3	76.98
345.71 K, Crystal 3	77.03
346.71 K, Crystal 3	77.08
347.71 K, Crystal 3	77.13
348.71 K, Crystal 3	77.18
349.71 K, Crystal 3	77.22
350.71 K, Crystal 3	77.27
351.71 K, Crystal 3	77.32
352.71 K, Crystal 3	77.37
353.71 K, Crystal 3	77.42
354.71 K, Crystal 3	77.46
355.71 K, Crystal 3	77.51
356.71 K, Crystal 3	77.56
357.71 K, Crystal 3	77.61
358.71 K, Crystal 3	77.66
359.71 K, Crystal 3	77.71
360.71 K, Crystal 3	77.76
361.71 K, Crystal 3	77.81
362.71 K, Crystal 3	77.86
363.71 K, Crystal 3	77.91
364.71 K, Crystal 3	77.96
365.71 K, Crystal 3	78.01
366.71 K, Crystal 3	78.07
367.71 K, Crystal 3	78.12
368.71 K, Crystal 3	78.17
369.71 K, Crystal 3	78.23
370.71 K, Crystal 3	78.29
371.71 K, Crystal 3	78.34
372.71 K, Crystal 3	78.4
373.71 K, Crystal 3	78.46
374.71 K, Crystal 3	78.52
375.71 K, Crystal 3	78.58
376.71 K, Crystal 3	78.64
377.71 K, Crystal 3	78.7
378.71 K, Crystal 3	78.76
379.71 K, Crystal 3	78.83
380.71 K, Crystal 3	78.89
381.71 K, Crystal 3	78.96
382.71 K, Crystal 3	79.03
383.71 K, Crystal 3	79.1
384.71 K, Crystal 3	79.17
385.71 K, Crystal 3	79.24
386.71 K, Crystal 3	79.31
387.71 K, Crystal 3	79.39
388.71 K, Crystal 3	79.46
389.71 K, Crystal 3	79.54
390.71 K, Crystal 3	79.62
391.71 K, Crystal 3	79.7
392.71 K, Crystal 3	79.79
393.71 K, Crystal 3	79.87
394.71 K, Crystal 3	79.96
395.71 K, Crystal 3	80.04
396.71 K, Crystal 3	80.13
397.71 K, Crystal 3	80.23
398.71 K, Crystal 3	80.32
399.71 K, Crystal 3	80.41
400.71 K, Crystal 3	80.5
401.71 K, Crystal 3	80.6
402.71 K, Crystal 3	80.69
403.71 K, Crystal 3	80.78
404.71 K, Crystal 3	80.88
405.71 K, Crystal 3	80.98
406.71 K, Crystal 3	81.09
407.71 K, Crystal 3	81.19
408.71 K, Crystal 3	81.3
409.71 K, Crystal 3	81.41
410.71 K, Crystal 3	81.52
411.71 K, Crystal 3	81.63
412.71 K, Crystal 3	81.75
413.71 K, Crystal 3	81.87
414.71 K, Crystal 3	81.99
415.71 K, Crystal 3	82.11
416.71 K, Crystal 3	82.24
417.71 K, Crystal 3	82.37
418.71 K, Crystal 3	82.5
419.71 K, Crystal 3	82.64
420.71 K, Crystal 3	82.77
421.71 K, Crystal 3	82.91
422.71 K, Crystal 3	83.06
423.71 K, Crystal 3	83.2
424.71 K, Crystal 3	83.35
425.71 K, Crystal 3	83.51
426.71 K, Crystal 3	83.66
427.71 K, Crystal 3	83.82
428.71 K, Crystal 3	83.98
429.71 K, Crystal 3	84.15
430.71 K, Crystal 3	84.32
431.71 K, Crystal 3	84.49
432.71 K, Crystal 3	84.66
433.71 K, Crystal 3	84.84
434.71 K, Crystal 3	85.01
435.71 K, Crystal 3	85.19
436.71 K, Crystal 3	85.36
437.71 K, Crystal 3	85.54
438.71 K, Crystal 3	85.72
439.71 K, Crystal 3	85.91
440.71 K, Crystal 3	86.2
441.71 K, Crystal 3	86.6
442.71 K, Crystal 3	87.1
443.71 K, Crystal 3	87.6
444.71 K, Crystal 3	88.38
446.71 K, Crystal 3	90.5
447.71 K, Crystal 3	92.95
448.71 K, Crystal 3	93.65
449.71 K, Crystal 3	94.94
461.57 K, Crystal 2	90.56
462.57 K, Crystal 2	90.49
463.57 K, Crystal 2	90.42
464.57 K, Crystal 2	90.35
465.57 K, Crystal 2	90.28
466.57 K, Crystal 2	90.21
467.57 K, Crystal 2	90.13
468.57 K, Crystal 2	90.06
469.57 K, Crystal 2	89.98
470.57 K, Crystal 2	89.9
471.57 K, Crystal 2	89.82
472.57 K, Crystal 2	89.75
473.57 K, Crystal 2	89.67
474.57 K, Crystal 2	89.59
475.57 K, Crystal 2	89.51
476.57 K, Crystal 2	89.43
477.57 K, Crystal 2	89.35
478.57 K, Crystal 2	89.28
479.57 K, Crystal 2	89.2
480.57 K, Crystal 2	89.12
481.57 K, Crystal 2	89.05
482.57 K, Crystal 2	88.97
483.57 K, Crystal 2	88.9
484.57 K, Crystal 2	88.83
485.57 K, Crystal 2	88.76
486.57 K, Crystal 2	88.69
487.57 K, Crystal 2	88.62
488.57 K, Crystal 2	88.55
489.57 K, Crystal 2	88.48
490.57 K, Crystal 2	88.42
491.57 K, Crystal 2	88.35
492.57 K, Crystal 2	88.29
493.57 K, Crystal 2	88.23
494.57 K, Crystal 2	88.17
495.57 K, Crystal 2	88.11
496.57 K, Crystal 2	88.06
497.57 K, Crystal 2	88
498.57 K, Crystal 2	87.95
499.57 K, Crystal 2	87.9
500.57 K, Crystal 2	87.85
501.57 K, Crystal 2	87.8
502.57 K, Crystal 2	87.76
503.57 K, Crystal 2	87.71
504.57 K, Crystal 2	87.67
505.57 K, Crystal 2	87.62
506.57 K, Crystal 2	87.58
507.57 K, Crystal 2	87.54
508.57 K, Crystal 2	87.54
509.57 K, Crystal 2	87.54
510.57 K, Crystal 2	87.54
511.57 K, Crystal 2	87.57
512.57 K, Crystal 2	87.59
513.57 K, Crystal 2	87.61
514.57 K, Crystal 2	87.61
515.57 K, Crystal 2	87.61
516.57 K, Crystal 2	87.62
517.57 K, Crystal 2	87.62
518.57 K, Crystal 2	87.62
519.57 K, Crystal 2	87.64
520.57 K, Crystal 2	87.64
521.82 K, Crystal 2	87.58
522.82 K, Crystal 2	87.56
523.82 K, Crystal 2	87.54
524.82 K, Crystal 2	87.52
525.82 K, Crystal 2	87.5
526.82 K, Crystal 2	87.48
527.82 K, Crystal 2	87.46
528.82 K, Crystal 2	87.45
529.82 K, Crystal 2	87.43
530.82 K, Crystal 2	87.42
531.82 K, Crystal 2	87.4
532.82 K, Crystal 2	87.39
533.82 K, Crystal 2	87.38
534.82 K, Crystal 2	87.37
535.82 K, Crystal 2	87.36
536.82 K, Crystal 2	87.35
537.82 K, Crystal 2	87.34
538.82 K, Crystal 2	87.33
539.82 K, Crystal 2	87.32
540.82 K, Crystal 2	87.31
541.82 K, Crystal 2	87.3
542.82 K, Crystal 2	87.29
543.82 K, Crystal 2	87.28
544.82 K, Crystal 2	87.27
545.82 K, Crystal 2	87.26
546.82 K, Crystal 2	87.26
547.82 K, Crystal 2	87.25
548.82 K, Crystal 2	87.24
549.82 K, Crystal 2	87.23
550.82 K, Crystal 2	87.22
551.82 K, Crystal 2	87.22
552.82 K, Crystal 2	87.21
553.82 K, Crystal 2	87.2
554.82 K, Crystal 2	87.19
555.82 K, Crystal 2	87.18
556.82 K, Crystal 2	87.17
557.82 K, Crystal 2	87.17
558.82 K, Crystal 2	87.16
559.82 K, Crystal 2	87.15
560.82 K, Crystal 2	87.14
561.82 K, Crystal 2	87.13
562.82 K, Crystal 2	87.12
563.82 K, Crystal 2	87.11
564.82 K, Crystal 2	87.1
565.82 K, Crystal 2	87.09
566.82 K, Crystal 2	87.07
567.82 K, Crystal 2	87.06
568.82 K, Crystal 2	87.05
569.82 K, Crystal 2	87.04
570.82 K, Crystal 2	87.02
571.82 K, Crystal 2	87.01
572.82 K, Crystal 2	87
573.82 K, Crystal 2	86.98
574.82 K, Crystal 2	86.97
575.82 K, Crystal 2	86.95
576.82 K, Crystal 2	86.94
577.82 K, Crystal 2	86.92
578.82 K, Crystal 2	86.91
579.82 K, Crystal 2	86.89
580.82 K, Crystal 2	86.87
581.82 K, Crystal 2	86.85
582.82 K, Crystal 2	86.83
583.82 K, Crystal 2	86.82
584.82 K, Crystal 2	86.8
585.82 K, Crystal 2	86.78
586.82 K, Crystal 2	86.76
587.82 K, Crystal 2	86.74
588.82 K, Crystal 2	86.72
589.82 K, Crystal 2	86.7
590.82 K, Crystal 2	86.67
591.82 K, Crystal 2	86.65
592.82 K, Crystal 2	86.63
593.82 K, Crystal 2	86.61
594.82 K, Crystal 2	86.61
595.82 K, Crystal 2	86.63
596.82 K, Crystal 2	86.62
597.82 K, Crystal 2	86.62
598.82 K, Crystal 2	86.6
599.82 K, Crystal 2	86.6
600.82 K, Crystal 2	86.58
601.82 K, Crystal 2	86.55
602.82 K, Crystal 2	86.53
603.82 K, Crystal 2	86.5
604.82 K, Crystal 2	86.48
605.82 K, Crystal 2	86.45
606.82 K, Crystal 2	86.43
607.82 K, Crystal 2	86.4
608.82 K, Crystal 2	86.38
609.82 K, Crystal 2	86.35
610.82 K, Crystal 2	86.33
611.82 K, Crystal 2	86.3
612.82 K, Crystal 2	86.28
613.82 K, Crystal 2	86.25
614.82 K, Crystal 2	86.23
615.82 K, Crystal 2	86.2
616.82 K, Crystal 2	86.18
